One test concerns the target T1, wild-type FLT3 receptor (Homo sapiens, UniProt P36888).
T1 construct: host or cells: Baf3 (murine B cell lymphoma line), stably transfected
T1 sequence (P36888 27-993): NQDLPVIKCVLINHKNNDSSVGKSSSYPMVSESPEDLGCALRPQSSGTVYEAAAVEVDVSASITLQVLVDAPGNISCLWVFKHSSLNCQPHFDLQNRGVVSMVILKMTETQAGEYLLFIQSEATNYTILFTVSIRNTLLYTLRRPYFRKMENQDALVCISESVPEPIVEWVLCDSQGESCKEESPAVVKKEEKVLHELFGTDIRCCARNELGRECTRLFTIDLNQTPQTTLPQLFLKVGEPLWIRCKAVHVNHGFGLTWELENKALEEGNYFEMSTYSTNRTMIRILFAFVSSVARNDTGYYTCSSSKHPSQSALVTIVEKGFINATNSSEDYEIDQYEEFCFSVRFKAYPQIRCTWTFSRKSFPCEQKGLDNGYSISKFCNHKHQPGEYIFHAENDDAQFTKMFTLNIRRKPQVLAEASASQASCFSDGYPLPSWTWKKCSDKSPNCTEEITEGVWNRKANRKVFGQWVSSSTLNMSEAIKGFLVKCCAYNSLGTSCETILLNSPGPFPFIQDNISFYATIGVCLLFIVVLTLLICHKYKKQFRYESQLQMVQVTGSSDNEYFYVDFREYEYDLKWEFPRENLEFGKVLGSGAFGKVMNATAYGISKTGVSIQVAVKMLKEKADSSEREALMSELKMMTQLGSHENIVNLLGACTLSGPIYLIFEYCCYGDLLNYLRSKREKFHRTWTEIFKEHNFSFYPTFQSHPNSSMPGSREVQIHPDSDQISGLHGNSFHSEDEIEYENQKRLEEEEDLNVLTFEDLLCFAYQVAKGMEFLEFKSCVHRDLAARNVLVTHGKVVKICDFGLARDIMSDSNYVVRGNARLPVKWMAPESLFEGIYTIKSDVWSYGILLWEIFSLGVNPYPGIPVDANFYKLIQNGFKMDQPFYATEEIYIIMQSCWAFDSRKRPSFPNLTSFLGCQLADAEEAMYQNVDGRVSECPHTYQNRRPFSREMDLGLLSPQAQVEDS
The experiment in a line: Cell-based FLT3 receptor ELISA (FLT ligand-induced phosphorylation in Baf3 FLT3 cells). Conditions: 100 ng/mL Flt ligand, uncertainty ±20%. The method, then:
Specific cellular inhibition of FLT ligand-induced wild-type FLT3 phosphorylation was measured in the following manner: Baf3 FLT3 cells overexpressing the FLT3 receptor were obtained from Dr. Michael Heinrich (Oregon Health and Sciences University). The Baf3 FLT3 cell lines were created by stable transfection of parental Baf3 cells (a murine B cell lymphoma line dependent on the cytokine IL-3 for growth) with wild-type FLT3. Cells were selected for their ability to grow in the absence of IL-3 and in the presence of FLT3 ligand. Baf3 cells were maintained in RPMI 1640 with 10% FBS, penn/strep and 10 ng/ml FLT ligand at 37° C., 5% CO2. To measure direct inhibition of the wild-type FLT3 receptor activity and phosphorylation a sandwich ELISA method was developed similar to those developed for other RTKs (see Sadick, M D, Sliwkowski, M X, Nuijens, A, Bald, L, Chiang, N, Lofgren, J A, Wong W L T. Analysis of Heregulin-Induced ErbB2 Phosphorylation with a High-Throughput Kinase Receptor Activation Enzyme-Linked Immunsorbent Assay, Analytical Biochemistry. 1996; 235:207-214 and Baumann C A, Zeng L, Donatelli R R, Maroney A C. Development of a quantitative, high-throughput cell-based enzyme-linked immunosorbent assay for detection of colony-stimulating factor-1 receptor tyrosine kinase inhibitors. J Biochem Biophys Methods. 2004; 60:69-79.). 200 μL of Baf3FLT3 cells (1×10^6 /mL) were plated in 96 well dishes in RPMI 1640 with 0.5% serum and 0.01 ng/mL IL-3 for 16 hours prior to 1 hour compound or DMSO vehicle incubation. Cells were treated with 100 ng/mL Flt ligand (R&D Systems Cat# 308-FK) for 10 min. at 37° C. Cells were pelleted, washed and lysed in 100 ul lysis buffer (50 mM Hepes, 150 mM NaCl, 10% Glycerol, 1% Triton-X-100, 10 mM NaF, 1 mM EDTA, 1.5 mM MgCl2, 10 mM NaPyrophosphate) supplemented with phosphatase (Sigma Cat# P2850) and protease inhibitors (Sigma Cat #P8340). Lysates were cleared by centrifugation at 1000×g for 5 minutes at 4° C. Cell lysates were transferred to white wall 96 well microtiter (Costar #9018) plates coated with 50 ng/well anti-FLT3 antibody (Santa Cruz Cat# sc-480) and blocked with SeaBlock reagent (Pierce Cat#37527). Lysates were incubated at 4° C. for 2 hours. Plates were washed 3× with 200 ul/well PBS/0.1% Triton-X-100. Plates were then incubated with 1:8000 dilution of HRP-conjugated anti-phosphotyrosine antibody (Clone 4G10, Upstate Biotechnology Cat#16-105) for 1 hour at room temperature. Plates were washed 3× with 200 ul/well PBS/0.1% Triton-X-100. Signal detection with Super Signal Pico reagent (Pierce Cat#37070) was done according to manufacturer's instruction with a Berthold microplate luminometer. All data points are an average of triplicate samples. […] Inhibition and IC50 data analysis was done with GraphPad Prism using a non-linear regression fit with a multiparamater, sigmoidal dose-response (variable slope) equation.
(ELISA stands for enzyme-linked immunosorbent assay.)

Test [1] has as its target T2, isolated kinase domain of the human FLT3 receptor (a.a. 571-993) (Homo sapiens, UniProt P36888).
T2 construct: human FLT3 receptor (a.a. 571-993)
T2 sequence (P36888 571-993): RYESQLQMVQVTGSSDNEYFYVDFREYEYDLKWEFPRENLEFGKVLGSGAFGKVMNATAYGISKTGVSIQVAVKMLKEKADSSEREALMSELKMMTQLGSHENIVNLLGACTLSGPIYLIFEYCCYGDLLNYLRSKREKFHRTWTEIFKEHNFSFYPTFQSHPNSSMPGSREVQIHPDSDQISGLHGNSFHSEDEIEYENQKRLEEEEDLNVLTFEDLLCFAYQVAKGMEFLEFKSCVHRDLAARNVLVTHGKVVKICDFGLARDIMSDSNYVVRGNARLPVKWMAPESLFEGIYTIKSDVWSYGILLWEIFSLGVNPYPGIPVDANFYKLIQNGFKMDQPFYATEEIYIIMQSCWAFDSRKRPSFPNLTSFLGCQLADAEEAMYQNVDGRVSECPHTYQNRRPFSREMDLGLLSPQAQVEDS
The test can be described thus: FLT3 fluorescence polarization kinase assay. The class given is biochemical. Conditions: 150 uM ATP; uncertainty ±10%. The procedure: The FLT3 FP assay utilizes the fluorescein-labeled phosphopeptide and the anti-phosphotyrosine antibody included in the Panvera Phospho-Tyrosine Kinase Kit (Green) supplied by Invitrogen. When FLT3 phosphorylates polyGlu4Tyr, the fluorescein-labeled phosphopeptide is displaced from the anti-phosphotyrosine antibody by the phosphorylated poly Glu4Tyr, thus decreasing the FP value. The FLT3 kinase reaction is incubated at room temperature for 30 minutes under the following conditions: 10 nM FLT3 571-993, 20 ug/mL poly Glu4Tyr, 150 uM ATP, 5 mM MgCl2, 1% compound in DMSO. The kinase reaction is stopped with the addition of EDTA. The fluorescein-labeled phosphopeptide and the anti-phosphotyrosine antibody are added and incubated for 30 minutes at room temperature.
All data points are an average of triplicate samples. Inhibition and IC50 data analysis was done with GraphPad Prism using a non-linear regression fit with a multiparamater, sigmoidal dose-response (variable slope) equation.
In general terms: Fluorescence polarisation rises when a labelled molecule tumbles more slowly, as on binding a larger partner.

The test system of the next test is MV4-11 cells. The test can be described thus: Inhibition of MV4-11 cell proliferation (CellTiterGlo, 72 h). The class given is cell-based. The conditions noted are these: Homo sapiens; 72 h growth inhibition; uncertainty ±20%. The procedure: MV4-11 cells cannot grow and survive without active FLT3ITD.
To measure proliferation inhibition by test compounds, the luciferase based CellTiterGlo reagent (Promega), which quantifies total cell number based on total cellular ATP concentration, was used. Cells are plated at 10,000 cells per well in 100 ul of in RPMI media containing penn/strep, 10% FBS and 1 ng/ml GM-CSF or 1 ng/ml IL-3 for MV4-11 and Baf3 cells respectively.
Compound dilutions or 0.1% DMSO (vehicle control) are added to cells and the cells are allowed to grow for 72 hours at standard cell growth conditions (37° C., 5% CO2). For activity measurements in MV4-11 cells grown in 50% plasma, cells were plated at 10,000 cells per well in a 1:1 mixture of growth media and human plasma (final volume of 100 μL). To measure total cell growth an equal volume of CellTiterGlo reagent was added to each well, according to the manufacturer's instructions, and luminescence was quantified. Total cell growth was quantified as the difference in luminescent counts (relative light units, RLU) of cell number at Day 0 compared to total cell number at Day 3 (72 hours of growth and/or compound treatment). One hundred percent inhibition of growth is defined as an RLU equivalent to the Day 0 reading. Zero percent inhibition was defined as the RLU signal for the DMSO vehicle control at Day 3 of growth. All data points are an average of triplicate samples. […] Inhibition and IC50 data analysis was done with GraphPad Prism using a non-linear regression fit with a multiparamater, sigmoidal dose-response (variable slope) equation.
MV4-11 cells express the FLT3 internal tandem duplication mutation, and thus are entirely dependent upon FLT3 activity for growth. […] In contrast, the Baf3 cell proliferation is driven by the cytokine IL-3 and thus are used as a non-specific toxicity control for test compounds.
Background: Cellular ATP, detected with luciferase, serves as a proxy for viable cell number.

With `O=C(Nc1ccc(N2CCOCC2)cc1)N1CCC(c2ncnc3cc(OCCCN4CCNCC4)ccc23)CC1` [Example 123, 4-[7-(3-Piperazin-1-yl-propoxy)-quinazolin-4-yl]-piperidine-1-carboxylic acid (4-morpholin-4-yl-phenyl)-amide], the values for the 50% inhibitory concentration (IC50) (at wild-type FLT3 receptor; in test [1]) were 2 nM and 8 nM, respectively.
On to `COc1cc2ncnc(C3CCN(C(=O)Nc4ccc(C5CCNCC5)cc4)CC3)c2cc1OC` [Example 64, 4-(6,7-Dimethoxy-quinazolin-4-yl)-piperidine-1-carboxylic acid (4-piperidin-4-yl-phenyl)-amide], for which the IC50 with MV4-11 cells was determined as 330 nM; against wild-type FLT3 receptor it was 357 nM.
In the case of `COc1cc2ncnc(C3CCN(C(=O)Nc4ccc(Cl)cc4)CC3)c2cc1OC` [Example 49, 4-(6,7-Dimethoxy-quinazolin-4-yl)-piperidine-1-carboxylic acid (4-chloro-phenyl)-amide], the half-inhibitory concentration (IC50) in the test on MV4-11 cells is 7000 nM; against wild-type FLT3 receptor it was greater than 3000 nM.
Turning to `COC[C@H]1CCCN1c1ccc2c(C3CCN(C(=O)Nc4ccc(N5CCOCC5)cc4)CC3)ncnc2c1` [Example 130, (R)-4-[7-(2-Methoxymethyl-pyrrolidin-1-yl)-quinazolin-4-yl]-piperidine-1-carboxylic acid (4-morpholin-4-yl-phenyl)-amide], the half-inhibitory concentration (IC50) against wild-type FLT3 receptor stood at 586 nM; in test [1] it was 626 nM.
On to `CN1CCC(Oc2ccc3c(C4CCN(C(=O)Nc5ccc(N6CCOCC6)cc5)CC4)ncnc3c2)CC1` [Example 127, 4-[7-(1-Methyl-piperidin-4-yloxy)-quinazolin-4-yl]-piperidine-1-carboxylic acid (4-morpholin-4-yl-phenyl)-amide], for which the figures for the half-maximal inhibitory concentration (IC50) (at wild-type FLT3 receptor; in test [1]) were 37 nM and 260 nM, respectively.

A word on the IC50: it is the concentration that gives 50% inhibition. High values mean a need for much substance, low ones inhibition by little substance.

The record behind these values is US20070004660A1, “Synergistic Modulation of Flt3 Kinase Using Alkylquinolines and Alkylquinazolines” (priority 2005, published 2007).
